In the supplement of paper PMC11208160:

Test: recombinant barcode read abundance after kanamycin selection (control-corrected) (log10(CPM+1)); higher = more efficient recombination; sequences stand for … in AGTGCAGAGAAAATCGGCCAGTTTTCTCTGCCTGCAGTCCGCATGCCGT…AGATTTATGCAGCGGACTGCCTTTCTCCCAAAGTGATAAACCGGACAGTATCATGGACCGGTTTTCCCGGTAATCCGTATTTGCAAGGTTGGTTTCACT; site = the 11-nt target
In short: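 In a pooled screen in E. coli, targets were paired with target-binding loops of the IS621 bridge RNA. Each oligo carried a promoter, a target, a barcode and the first 104 bridge RNA bases driven by J23119, and was Gibson-cloned into a vector holding the remaining 73 bp and a T7-inducible recombinase before co-electroporation with a donor plasmid. Duplicate platings went onto chloramphenicol/ampicillin LB agar as the control or onto chloramphenicol/ampicillin/kanamycin with 0.1 mM IPTG. Recombination efficiency is the averaged, control-corrected count per million of barcodes at recombinant junctions, given as log10(CPM+1).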
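Note: IS621 recombinase and bridge RNA in Escherichia coli cells.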

Sequence	recombinant barcode read abundance (log10)
TGCCTATCTTGGGTTCTAACCTGTTGCCT (site TACCTATCTAG)	0.234
TGCCTATCTTGGGTTCTAACCTGTTGCCT (site TCCCTATCTAG)	0.0417
TGCCTATCTTGGGTTCTAACCTGTTGCCT (site TGCCTATCTAG)	0.28
TGCCTATCTTGGGTTCTAACCTGTTGCCT (site TTCCTATCTAG)	0.0491
TGCGAGTCTTGGGTTCTAACCTGTTGCGT (site TGCGAGTCTAC)	2.87
TGCGAGTCTTGGGTTCTAACCTGTTGCGT (site TTCGAGTCTCC)	0.0688
TGCGCAACTTGGGTTCTAACCTGTTGCCT (site TGCGCAACTAG)	0.0344
TGCGCAACTTGGGTTCTAACCTGTTGCCT (site TGCGCCACTAG)	0.256
TGCGCAACTTGGGTTCTAACCTGTTGCCT (site TGCGCGACTAG)	0.0979
TGCGCAACTTGGGTTCTAACCTGTTGCCT (site TGCGCTACTAG)	0.0921
TGCGCGACTTGGGTTCTAACCTGTTGCCT (site TGCGCAACTAG)	0.0131
TGCGCGACTTGGGTTCTAACCTGTTGCCT (site TGCGCCACTAG)	0.0885
TGCGCGACTTGGGTTCTAACCTGTTGCCT (site TGCGCGACTAG)	0.032
TGCGCGACTTGGGTTCTAACCTGTTGCCT (site TGCGCTACTAG)	0.0869
TGCGGAGCTTGGGTTCTAACCTGTTGCCT (site TGCCGACCTAG)	0.163
TGCGGAGCTTGGGTTCTAACCTGTTGCCT (site TGCGGAGCTAG)	0.875
TGCGGAGCTTGGGTTCTAACCTGTTGCGG (site AACGGAGCTCC)	0.348
TGCGGAGCTTGGGTTCTAACCTGTTGCGG (site TGCGGAGCTCC)	1.81
TGCGTGTCTTGGGTTCTAACCTGTTGCTG (site TACGTGTCTTA)	0.0382
TGCGTGTCTTGGGTTCTAACCTGTTGCTG (site TGCGTGTCTCA)	1.6
TGCTGGGCTTGGGTTCTAACCTGTTGCTG (site CTTCATTCTAG)	0.225
TGCTGGGCTTGGGTTCTAACCTGTTGCTG (site TGCTGGGCTCA)	0.32

Sequence	recombinant barcode read abundance (log10)
TGCTGTCCTTGGGTTCTAACCTGTTGCCT (site TGCTGTACTAG)	0.2
TGCTGTCCTTGGGTTCTAACCTGTTGCCT (site TGCTGTCCTAG)	0.111
TGCTGTCCTTGGGTTCTAACCTGTTGCCT (site TGCTGTGCTAG)	0.139
TGCTGTCCTTGGGTTCTAACCTGTTGCCT (site TGCTGTTCTAG)	0.0325
TGCTGTCCTTGGGTTCTAACCTGTTGCTT (site CAGACGACTTG)	0.127
TGCTGTCCTTGGGTTCTAACCTGTTGCTT (site TGCTGTCCTAA)	0.00473
TGGAACCCTTGGGTTCTAACCTGTTGCGG (site TGGAACCCTCC)	0.706
TGGAACCCTTGGGTTCTAACCTGTTGCGG (site TGGCACCCTCC)	0.0841
TGGAGAGCTTGGGTTCTAACCTGTTGCAG (site ACCTTGCCTTA)	0.0256
TGGAGAGCTTGGGTTCTAACCTGTTGCAG (site TGGAGAGCTCT)	2.3
TGGAGCCCTTGGGTTCTAACCTGTTGCAC (site TGGAGCCCTAT)	0.0355
TGGAGCCCTTGGGTTCTAACCTGTTGCAC (site TGGAGCCCTCT)	0.114
TGGAGCCCTTGGGTTCTAACCTGTTGCAC (site TGGAGCCCTGT)	0.253
TGGAGCCCTTGGGTTCTAACCTGTTGCAC (site TGGAGCCCTTT)	0.0674
TGGAGTCCTTGGGTTCTAACCTGTTGCTT (site TGGAGCCCTAA)	0.276
TGGAGTCCTTGGGTTCTAACCTGTTGCTT (site TGGAGTCCTAA)	0.605
TGGATCACTTGGGTTCTAACCTGTTGCCT (site TGGAACACTAG)	0.0491
TGGATCACTTGGGTTCTAACCTGTTGCCT (site TGGACCACTAG)	0.0457
TGGATCACTTGGGTTCTAACCTGTTGCCT (site TGGAGCACTAG)	0.0771
TGGATCACTTGGGTTCTAACCTGTTGCCT (site TGGATCACTAG)	1.09
TGGCCCTCTTGGGTTCTAACCTGTTGCTC (site TGGCCCTCTAA)	0.0244
TGGCCCTCTTGGGTTCTAACCTGTTGCTC (site TGGCCCTCTCA)	0.304

Sequence	recombinant barcode read abundance (log10)
TGGCCCTCTTGGGTTCTAACCTGTTGCTC (site TGGCCCTCTGA)	1.79
TGGCCCTCTTGGGTTCTAACCTGTTGCTC (site TGGCCCTCTTA)	0.0751
TGGCGTACTTGGGTTCTAACCTGTTGCCT (site TGGAGTACTAG)	0
TGGCGTACTTGGGTTCTAACCTGTTGCCT (site TGGCGTACTAG)	0.229
TGGCGTACTTGGGTTCTAACCTGTTGCCT (site TGGGGTACTAG)	0.0637
TGGCGTACTTGGGTTCTAACCTGTTGCCT (site TGGTGTACTAG)	0.149
TGGCTAGCTTGGGTTCTAACCTGTTGCCT (site TGACTAGCTAG)	0.052
TGGCTAGCTTGGGTTCTAACCTGTTGCCT (site TGCCTAGCTAG)	0.0442
TGGCTAGCTTGGGTTCTAACCTGTTGCCT (site TGGCTAGCTAG)	0.242
TGGCTAGCTTGGGTTCTAACCTGTTGCCT (site TGTCTAGCTAG)	0.0845
TGGGACCCTTGGGTTCTAACCTGTTGCAT (site TGCGACCCTAA)	0.261
TGGGACCCTTGGGTTCTAACCTGTTGCAT (site TGGGACCCTAT)	1.25
TGGGCGGCTTGGGTTCTAACCTGTTGCCT (site TAGGTGGCTAG)	0.133
TGGGCGGCTTGGGTTCTAACCTGTTGCCT (site TGGGCGGCTAG)	0.411
TGGGGCCCTTGGGTTCTAACCTGTTGCCG (site GCAATTACTAA)	0.09
TGGGGCCCTTGGGTTCTAACCTGTTGCCG (site TGGGGCCCTCG)	1.9
TGGGTGACTTGGGTTCTAACCTGTTGCCT (site GCCTGCCCTCA)	0.422
TGGGTGACTTGGGTTCTAACCTGTTGCCT (site TGGGTGACTAG)	0.057
TGGTAACCTTGGGTTCTAACCTGTTGCCT (site AGGTAACCTAG)	0.0194
TGGTAACCTTGGGTTCTAACCTGTTGCCT (site CGGTAACCTAG)	0.172
TGGTAACCTTGGGTTCTAACCTGTTGCCT (site GGGTAACCTAG)	0.148
TGGTAACCTTGGGTTCTAACCTGTTGCCT (site TGGTAACCTAG)	0.571

Sequence	recombinant barcode read abundance (log10)
TGGTATGCTTGGGTTCTAACCTGTTGCCT (site TGGTATACTAG)	0.5
TGGTATGCTTGGGTTCTAACCTGTTGCCT (site TGGTATCCTAG)	0.0685
TGGTATGCTTGGGTTCTAACCTGTTGCCT (site TGGTATGCTAG)	1.39
TGGTATGCTTGGGTTCTAACCTGTTGCCT (site TGGTATTCTAG)	0
TGGTCTACTTGGGTTCTAACCTGTTGCTT (site TGATCTACTAA)	0
TGGTCTACTTGGGTTCTAACCTGTTGCTT (site TGCTCTACTAA)	0.0743
TGGTCTACTTGGGTTCTAACCTGTTGCTT (site TGGTCTACTAA)	0.154
TGGTCTACTTGGGTTCTAACCTGTTGCTT (site TGTTCTACTAA)	0.0113
TGGTTCGCTTGGGTTCTAACCTGTTGCCT (site TGGTACGCTAG)	0.0339
TGGTTCGCTTGGGTTCTAACCTGTTGCCT (site TGGTCCGCTAG)	0.0365
TGGTTCGCTTGGGTTCTAACCTGTTGCCT (site TGGTGCGCTAG)	0.0185
TGGTTCGCTTGGGTTCTAACCTGTTGCCT (site TGGTTCGCTAG)	1.43
TGTAATACTTGGGTTCTAACCTGTTGCCT (site TGTAATACTAG)	0.0354
TGTAATACTTGGGTTCTAACCTGTTGCCT (site TGTAATCCTAG)	0.0997
TGTAATACTTGGGTTCTAACCTGTTGCCT (site TGTAATGCTAG)	0.147
TGTAATACTTGGGTTCTAACCTGTTGCCT (site TGTAATTCTAG)	0.121
TGTACCTCTTGGGTTCTAACCTGTTGCCT (site TGTACCTCTAG)	0.522
TGTACCTCTTGGGTTCTAACCTGTTGCCT (site TGTCCCTCTAG)	0.00782
TGTACCTCTTGGGTTCTAACCTGTTGCCT (site TGTGCCTCTAG)	0.0235
TGTACCTCTTGGGTTCTAACCTGTTGCCT (site TGTTCCTCTAG)	0.0524
